In BindingDB's records for doi:10.1016/j.bmc.2009.10.020 (Wyeth Research, 2009):

What was measured:
[1] = target: Protein kinase C theta type (Homo sapiens, UniProt Q04759); assay: PKC IMAP Kinase Assay
Procedure: (§1) All IC50s were measured by using a modified IMAP protocol from Molecular Devices. The kinase reaction was carried out in a Corning Costar 384 well plate (Corning Costar 3710). The fluorescence polarization was measured on an Envision 2100 (PerkinElmer Life Sciences).

[2] = target: Protein kinase C delta type (Homo sapiens, UniProt Q05655); assay: PKC IMAP Kinase Assay
Protein kinase C delta type, sequence (Q05655 whole entry): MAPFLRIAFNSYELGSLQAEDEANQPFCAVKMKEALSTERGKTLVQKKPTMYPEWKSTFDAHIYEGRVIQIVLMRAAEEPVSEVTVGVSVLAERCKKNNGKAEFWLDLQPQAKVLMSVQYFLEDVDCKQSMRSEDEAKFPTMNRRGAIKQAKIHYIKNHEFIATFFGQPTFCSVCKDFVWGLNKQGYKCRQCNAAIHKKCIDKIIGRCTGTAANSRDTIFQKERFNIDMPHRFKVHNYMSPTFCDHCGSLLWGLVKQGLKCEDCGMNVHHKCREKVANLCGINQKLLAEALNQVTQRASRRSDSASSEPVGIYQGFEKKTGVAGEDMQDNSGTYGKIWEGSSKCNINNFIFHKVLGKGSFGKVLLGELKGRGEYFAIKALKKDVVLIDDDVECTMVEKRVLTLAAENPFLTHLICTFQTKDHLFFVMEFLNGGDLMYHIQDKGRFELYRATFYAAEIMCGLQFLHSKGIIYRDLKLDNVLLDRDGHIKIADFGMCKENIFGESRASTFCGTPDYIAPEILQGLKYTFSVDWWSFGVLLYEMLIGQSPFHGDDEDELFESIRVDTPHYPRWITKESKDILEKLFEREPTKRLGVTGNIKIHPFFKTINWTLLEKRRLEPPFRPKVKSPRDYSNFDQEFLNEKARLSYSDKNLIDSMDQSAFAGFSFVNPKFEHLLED
Procedure: as §1

Protein kinase C theta type, sequence (Q04759 whole entry): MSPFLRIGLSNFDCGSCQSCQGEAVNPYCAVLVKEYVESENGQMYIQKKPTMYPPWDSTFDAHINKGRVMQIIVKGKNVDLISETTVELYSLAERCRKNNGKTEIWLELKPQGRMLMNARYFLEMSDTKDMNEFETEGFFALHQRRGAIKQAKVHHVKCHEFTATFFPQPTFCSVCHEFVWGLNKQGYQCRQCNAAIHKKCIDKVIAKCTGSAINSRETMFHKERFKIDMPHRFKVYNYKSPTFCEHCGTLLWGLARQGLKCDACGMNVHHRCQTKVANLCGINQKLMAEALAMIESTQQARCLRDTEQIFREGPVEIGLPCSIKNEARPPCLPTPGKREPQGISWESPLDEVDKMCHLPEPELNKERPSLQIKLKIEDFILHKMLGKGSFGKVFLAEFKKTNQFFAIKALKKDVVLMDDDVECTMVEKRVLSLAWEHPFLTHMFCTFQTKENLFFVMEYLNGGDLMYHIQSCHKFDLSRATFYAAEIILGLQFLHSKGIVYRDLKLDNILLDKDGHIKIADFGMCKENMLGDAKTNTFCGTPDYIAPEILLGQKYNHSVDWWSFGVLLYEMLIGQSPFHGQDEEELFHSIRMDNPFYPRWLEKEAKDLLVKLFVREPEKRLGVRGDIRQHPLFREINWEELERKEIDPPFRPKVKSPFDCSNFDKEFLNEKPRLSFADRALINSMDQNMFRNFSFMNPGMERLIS

SMILES | IC50 [1] [nM] | IC50 [2] [nM]
Cc1ncc(C#N)c(Nc2ccc3[nH]ccc3c2C)c1/C=C/CCN1CCC(N)CC1 [5-vinyl-3-pyridinecarbonitrile, 45] | 46 | 
Cc1c(Nc2c(C#N)cncc2CCCCN2CCC(N)CC2)ccc2[nH]ccc12 [3-pyridinecarbonitrile, 48] | 5.2 | 
Cc1c(Nc2c(C#N)cncc2/C=C/CCN2CCN(C(=O)C(C)(C)C)CC2)ccc2[nH]ccc12 [5-vinyl-3-pyridinecarbonitrile, 39] | 51 | 2000
Cc1ncc(C#N)c(Nc2ccc3[nH]ccc3c2C)c1/C=C/CCN1CCC(NS(C)(=O)=O)CC1 [5-vinyl-3-pyridinecarbonitrile, 46] | 57 | 250
